Source: ChEMBL document CHEMBL1201862, “PubChem BioAssay data set” (2004)
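Growth conditions: 96-well plates. Treatment: test compound, 48 hours, 5 concentrations. Analysis: linear interpolation between bracketing concentrations; unreached endpoints set to highest concentration. GI50 = concentration required for 50% inhibition of growth.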 The source made the active and inactive calls. No stated cut-off is given here; in the data, active = GI50 up to about 1.1 µM and inactive = higher.

Assays:
Experiment in all cases: NCI-60 cell line screen, 48 h
[1] = tested on: HOP-62
[2] = tested on: PC-3
[3] = tested on: OVCAR-8
[4] = tested on: U-251
[5] = tested on: HT-29
[6] = tested on: RPMI-8226
[7] = tested on: HCT-116
[8] = tested on: TK-10
[9] = tested on: LOX IMVI
[10] = tested on: SR
[11] = tested on: CAKI-1
[12] = tested on: SW-620
[13] = tested on: M14
[14] = tested on: Hs-578T
[15] = tested on: NCI-H460
[16] = tested on: HOP-18
[17] = tested on: M19-MEL
[18] = tested on: DLD-1
[19] = tested on: KM-20L2
[20] = tested on: SNB-78

Compound: CN1CCC[N+](C)=C1c1ccccc1
- GI50 [1]: > 100 µM (inactive)
- GI50 [2]: > 100 µM (inactive)
- GI50 [3]: > 100 µM (inactive)
- GI50 [4]: > 100 µM (inactive)
- GI50 [5]: > 100 µM (inactive)
- GI50 [6]: > 100 µM (inactive)
- GI50 [7]: > 100 µM (inactive)
- GI50 [8]: > 100 µM (inactive)
- GI50 [9]: > 100 µM (inactive)
- GI50 [10]: > 100 µM (inactive)
- GI50 [11]: > 100 µM (inactive)
- GI50 [12]: > 100 µM (inactive)
- GI50 [13]: > 100 µM (inactive)
- GI50 [14]: > 100 µM (inactive)
- GI50 [15]: > 100 µM (inactive)

Compound: NC(=O)C(=O)c1ncn(Cc2ccccc2)c1N
- GI50 [1]: > 100 µM (inactive)
- GI50 [2]: > 100 µM (inactive)
- GI50 [3]: > 100 µM (inactive)
- GI50 [4]: > 100 µM (inactive)
- GI50 [5]: > 100 µM (inactive)
- GI50 [6]: > 100 µM (inactive)
- GI50 [7]: > 100 µM (inactive)
- GI50 [8]: > 100 µM (inactive)
- GI50 [9]: 89.5 µM (inactive)
- GI50 [10]: > 100 µM (inactive)
- GI50 [11]: > 100 µM (inactive)
- GI50 [12]: > 100 µM (inactive)
- GI50 [13]: > 100 µM (inactive)
- GI50 [14]: > 100 µM (inactive)
- GI50 [15]: > 100 µM (inactive)

Compound: CC(=O)/C(=C/N1CCNC1=S)C(=O)Nc1ccccc1C
- GI50 [1]: > 100 µM (inactive)
- GI50 [2]: > 100 µM (inactive)
- GI50 [3]: > 100 µM (inactive)
- GI50 [4]: > 100 µM (inactive)
- GI50 [5]: > 100 µM (inactive)
- GI50 [6]: > 100 µM (inactive)
- GI50 [7]: > 100 µM (inactive)
- GI50 [8]: > 100 µM (inactive)
- GI50 [9]: > 100 µM (inactive)
- GI50 [10]: 83 µM (inactive)
- GI50 [11]: > 100 µM (inactive)
- GI50 [12]: > 100 µM (inactive)
- GI50 [13]: > 100 µM (inactive)
- GI50 [14]: > 100 µM (inactive)
- GI50 [15]: > 100 µM (inactive)

Compound: CC(C)(C)OC(=O)N1CCCC1C(=O)NC(c1ccccc1)c1ccccc1 (stereo not drawn)
- GI50 [1]: > 100 µM (inactive)
- GI50 [2]: > 100 µM (inactive)
- GI50 [3]: > 100 µM (inactive)
- GI50 [4]: > 100 µM (inactive)
- GI50 [5]: > 100 µM (inactive)
- GI50 [6]: > 100 µM (inactive)
- GI50 [7]: > 100 µM (inactive)
- GI50 [8]: > 100 µM (inactive)
- GI50 [9]: > 100 µM (inactive)
- GI50 [10]: > 100 µM (inactive)
- GI50 [11]: > 100 µM (inactive)
- GI50 [12]: > 100 µM (inactive)
- GI50 [13]: > 100 µM (inactive)
- GI50 [14]: > 100 µM (inactive)
- GI50 [15]: > 100 µM (inactive)

Compound: OCC12C=CC(C1)c1ccccc12 (stereo not drawn)
- GI50 [1]: > 100 µM (inactive)
- GI50 [3]: > 100 µM (inactive)
- GI50 [16]: > 100 µM (inactive)
- GI50 [4]: > 100 µM (inactive)
- GI50 [5]: > 100 µM (inactive)
- GI50 [6]: > 100 µM (inactive)
- GI50 [7]: > 100 µM (inactive)
- GI50 [8]: > 100 µM (inactive)
- GI50 [9]: > 100 µM (inactive)
- GI50 [10]: > 100 µM (inactive)
- GI50 [11]: > 100 µM (inactive)
- GI50 [17]: > 100 µM (inactive)
- GI50 [12]: > 100 µM (inactive)
- GI50 [18]: > 100 µM (inactive)
- GI50 [13]: > 100 µM (inactive)
- GI50 [19]: > 100 µM (inactive)
- GI50 [15]: > 100 µM (inactive)

Compound: COc1ccc(C(=O)OCC2OC(n3cnc4c(=S)nc[nH]c43)C(OC(=O)c3ccc(OC)cc3)C2OC(=O)c2ccc(OC)cc2)cc1 (stereo not drawn)
- GI50 [1]: 3.18 µM (inactive)
- GI50 [3]: 28.5 µM (inactive)
- GI50 [4]: > 100 µM (inactive)
- GI50 [5]: 24.9 µM (inactive)
- GI50 [6]: 4.36 µM (inactive)
- GI50 [7]: 10.5 µM (inactive)
- GI50 [8]: 7.43 µM (inactive)
- GI50 [10]: 14 µM (inactive)
- GI50 [11]: 48.6 µM (inactive)
- GI50 [17]: > 100 µM (inactive)
- GI50 [12]: 46.9 µM (inactive)
- GI50 [18]: 11.6 µM (inactive)
- GI50 [13]: 3.36 µM (inactive)
- GI50 [19]: 8.47 µM (inactive)
- GI50 [15]: 43.1 µM (inactive)

Compound: N#CC1=C(N)n2c(s/c(=C\c3ccc(Cl)cc3)c2=O)=C(c2nc3ccccc3[nH]2)C1c1ccc(Cl)cc1 (stereo not drawn)
- GI50 [1]: 2.23 µM (inactive)
- GI50 [3]: 1.81 µM (inactive)
- GI50 [4]: 1.48 µM (inactive)
- GI50 [6]: 2.23 µM (inactive)
- GI50 [7]: 1.82 µM (inactive)
- GI50 [8]: 0.596 µM (active)
- GI50 [9]: 1.65 µM (inactive)
- GI50 [10]: 2.17 µM (inactive)
- GI50 [11]: 2.98 µM (inactive)
- GI50 [17]: 3.04 µM (inactive)
- GI50 [12]: 1.37 µM (inactive)
- GI50 [18]: 3.65 µM (inactive)
- GI50 [13]: 3.62 µM (inactive)
- GI50 [19]: 2.21 µM (inactive)
- GI50 [15]: 1.85 µM (inactive)

Compound: NNC(=O)/C(NC(=O)c1ccccc1)=C(\N)c1cccc([N+](=O)[O-])c1
- GI50 [1]: > 100 µM (inactive)
- GI50 [3]: > 100 µM (inactive)
- GI50 [16]: > 100 µM (inactive)
- GI50 [4]: > 100 µM (inactive)
- GI50 [5]: > 100 µM (inactive)
- GI50 [6]: > 100 µM (inactive)
- GI50 [7]: > 100 µM (inactive)
- GI50 [8]: > 100 µM (inactive)
- GI50 [9]: > 100 µM (inactive)
- GI50 [10]: > 100 µM (inactive)
- GI50 [11]: > 100 µM (inactive)
- GI50 [17]: > 100 µM (inactive)
- GI50 [20]: > 100 µM (inactive)
- GI50 [12]: > 100 µM (inactive)
- GI50 [18]: > 100 µM (inactive)
- GI50 [13]: > 100 µM (inactive)
- GI50 [15]: > 100 µM (inactive)

Compound: Cc1ccc2[nH]c3c(C)c4cc[n+](C)cc4c(C)c3c2c1
- GI50 [1]: 0.774 µM (active)
- GI50 [2]: 0.63 µM (active)
- GI50 [3]: 0.612 µM (active)
- GI50 [16]: 9.66 µM (inactive)
- GI50 [4]: 0.41 µM (active)
- GI50 [5]: 3.33 µM (inactive)
- GI50 [6]: 16.1 µM (inactive)
- GI50 [7]: 1.36 µM (inactive)
- GI50 [8]: 5.42 µM (inactive)
- GI50 [9]: 5 µM (inactive)
- GI50 [10]: 2.56 µM (inactive)
- GI50 [11]: 3.59 µM (inactive)
- GI50 [20]: 0.787 µM (active)
- GI50 [12]: 0.374 µM (active)
- GI50 [18]: 1.67 µM (inactive)
- GI50 [13]: 6.43 µM (inactive)
- GI50 [19]: 3.96 µM (inactive)
- GI50 [14]: 0.232 µM (active)
- GI50 [15]: 3.66 µM (inactive)
